Measured values published in PMC7707092, “Discovery and characterization of ORM‐11372, a novel inhibitor of the sodium‐calcium exchanger with positive inotropic activity” (British Journal of Pharmacology, 2020).
Values after ≈ are worked out from the molar mass of the structure shown. Like-named read-outs stand apart in the source and are kept apart here.

Assays:
L-Type Ca2+ Channel = details: Table S2; cited from earlier work
NCX [1] = system: NCX; parameters: method as in ref 9 (a number printed in a supplementary file, which may have a reference list of its own: not looked up in the article's list); details: SH-SY5Y neuron, cited from earlier work
hNCX1 = hNCX1 (Homo sapiens, UniProt P32418); test: Confirmatory fluorescence assay for hNCX1 inhibition (forward mode, HEK293 cells, Charles River); type: cell-based
Protocol: A confirmatory hNCX1 inhibition assay was performed in Charles River Laboratories, Cleveland. Briefly, HEK293 cells stably expressing hNCX1 were plated in 384‐well black wall, clear‐bottom microtitre plates and the next day loaded with Fluo‐8 for 30 min at 37°C. A plate was inserted into a FLIPR^TETRA, and a baseline was recorded during a preincubation period where test compound or vehicle in a Na^+‐free HB‐PS containing thapsigargin (6 μM) and […] (30 μM) was added to each well for ~5 min. Next, the NCX1 stimulation period was recorded in which Na^+‐containing HB‐PS (with 2‐μM thapsigargin and 10‐μM FCCP) was added. The experiments were performed at room temperature. The kinetic data generated were reduced for each well to maximum relative fluorescence units (RFU) minus minimum RFU after subtracting bias based on the first sample. The mean of the max–min RFU values during the stimulation period for the 3–4 replicates at each concentration on a plate was then plotted versus concentration and fitted to a Hill equation.

human NCX 1.1 = target: T1, human NCX 1.1 (Homo sapiens, UniProt P32418); test: Fluorescence screening assay for hNCX 1.1 inhibition (reverse mode, Sf9 cells); type: cell-based; details: Sf9 cells expressing human NCX1.1, reverse mode, fluorescence; n=3 assays
T1 construct: expressed in transfected cells
Protocol: Spodoptera frugiperda (Sf9; RRID:CVCL_0549) cells are widely used for the transient and stable expression of recombinant proteins. Here, Sf9 cells were stably transfected with human NCX 1.1 and maintained in spinner flasks with insect cell culture medium (TNM‐FH), supplemented with 10% FBS, antibiotic–antimycotic solution, and 50 μg·ml^−1 of blasticidin at 28°C in a non‐humidified, CO2‐free atmosphere. The Sf9 cell suspension was subcultured three times a week.
NCX reverse mode activity was stimulated via a 50% dilution of the extracellular Na^+ level using the internal pipettor of FLEXstation, a fluorescence imaging plate reader (Molecular Devices, USA), while simultaneously monitoring intracellular calcium levels. After dilution, the concentration of other ions remained the same, but Na^+ concentration was diluted to the half of original concentration of 172 to 86 mM. For Sf9 insect cells, normal extracellular Na^+ ion concentration is 172 mM. Typically, 50 μl of a solution containing 150,000–200,000 Sf9–NCX cells was loaded onto each well of a 96‐well plate. Cells were preincubated with the intracellular calcium dye Fluo‐4 and Fluo‐6, and the concentrations of the test compound (three replicates) were determined for about 1 h at room temperature before experimentation. The extracellular solution contained (in mM) 172 NaCl, 10 HEPES, 1 CaCl2, 1.2 MgCl2, 0.33 NaH2PO4, 5 glucose, and 5 probenecid. The pH was adjusted to 7.4 with NaOH. The extracellular Na^+ was diluted by the addition of a Na^+‐free extracellular solution (containing in mM: 147 N‐methyl‐D‐glucamine (NMDG), 10 HEPES, 1 CaCl2, 1.2 MgCl2, 0.33 NaH2PO4, and 5 glucose with the pH adjusted by HCl to 7.4)‐induced robust and reproducible elevation of intracellular calcium. The osmolarity of both solutions was adjusted to 340–355 mOsm in order to match the Sf9 cell media osmolarity. In each plate, the IC50 determination for each test compound was based on relative fluorescence changes in comparison with control and 5‐mM nickel acetate‐induced NCX inhibition.

Solubility = type: physicochemical; details: pH 7.4 phosphate buffer
NCX [2] = system: NCX; parameters: method as in ref 1 (a number printed in a supplementary file, which may have a reference list of its own: not looked up in the article's list); details: Rat, cited from earlier work
NCX [3] = system: NCX; parameters: method as in ref 1 (a number printed in a supplementary file, which may have a reference list of its own: not looked up in the article's list); details: Rabbit, cited from earlier work
MAO B = target: T2, MAO B (Homo sapiens, UniProt P27338); test: MAO B inhibition (Table S2); type: biochemical; details: 10 μM
T2 sequence (P27338 1-520): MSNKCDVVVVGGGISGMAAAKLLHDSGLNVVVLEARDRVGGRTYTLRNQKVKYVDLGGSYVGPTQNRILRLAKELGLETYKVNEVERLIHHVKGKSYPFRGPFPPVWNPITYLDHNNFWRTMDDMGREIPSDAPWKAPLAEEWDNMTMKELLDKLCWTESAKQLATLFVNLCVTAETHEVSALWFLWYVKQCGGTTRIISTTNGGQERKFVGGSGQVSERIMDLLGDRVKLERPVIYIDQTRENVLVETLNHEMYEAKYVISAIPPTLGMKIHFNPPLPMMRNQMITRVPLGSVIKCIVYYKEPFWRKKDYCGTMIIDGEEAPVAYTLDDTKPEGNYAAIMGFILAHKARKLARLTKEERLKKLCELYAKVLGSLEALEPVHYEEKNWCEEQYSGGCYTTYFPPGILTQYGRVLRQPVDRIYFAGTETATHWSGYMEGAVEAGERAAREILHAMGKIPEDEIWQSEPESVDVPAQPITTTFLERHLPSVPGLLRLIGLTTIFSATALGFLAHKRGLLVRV

NCX [4] = system: NCX; parameters: method as in ref 4 (a number printed in a supplementary file, which may have a reference list of its own: not looked up in the article's list); details: CCL39 fibroblast, cited from earlier work
hERG = hERG (Homo sapiens, UniProt Q12809); test: hERG IC50 of Table 1 / Table S2 (method not assigned); type: cell-based; details: human; n=4 assays
Chain of hERG (Q12809 whole entry): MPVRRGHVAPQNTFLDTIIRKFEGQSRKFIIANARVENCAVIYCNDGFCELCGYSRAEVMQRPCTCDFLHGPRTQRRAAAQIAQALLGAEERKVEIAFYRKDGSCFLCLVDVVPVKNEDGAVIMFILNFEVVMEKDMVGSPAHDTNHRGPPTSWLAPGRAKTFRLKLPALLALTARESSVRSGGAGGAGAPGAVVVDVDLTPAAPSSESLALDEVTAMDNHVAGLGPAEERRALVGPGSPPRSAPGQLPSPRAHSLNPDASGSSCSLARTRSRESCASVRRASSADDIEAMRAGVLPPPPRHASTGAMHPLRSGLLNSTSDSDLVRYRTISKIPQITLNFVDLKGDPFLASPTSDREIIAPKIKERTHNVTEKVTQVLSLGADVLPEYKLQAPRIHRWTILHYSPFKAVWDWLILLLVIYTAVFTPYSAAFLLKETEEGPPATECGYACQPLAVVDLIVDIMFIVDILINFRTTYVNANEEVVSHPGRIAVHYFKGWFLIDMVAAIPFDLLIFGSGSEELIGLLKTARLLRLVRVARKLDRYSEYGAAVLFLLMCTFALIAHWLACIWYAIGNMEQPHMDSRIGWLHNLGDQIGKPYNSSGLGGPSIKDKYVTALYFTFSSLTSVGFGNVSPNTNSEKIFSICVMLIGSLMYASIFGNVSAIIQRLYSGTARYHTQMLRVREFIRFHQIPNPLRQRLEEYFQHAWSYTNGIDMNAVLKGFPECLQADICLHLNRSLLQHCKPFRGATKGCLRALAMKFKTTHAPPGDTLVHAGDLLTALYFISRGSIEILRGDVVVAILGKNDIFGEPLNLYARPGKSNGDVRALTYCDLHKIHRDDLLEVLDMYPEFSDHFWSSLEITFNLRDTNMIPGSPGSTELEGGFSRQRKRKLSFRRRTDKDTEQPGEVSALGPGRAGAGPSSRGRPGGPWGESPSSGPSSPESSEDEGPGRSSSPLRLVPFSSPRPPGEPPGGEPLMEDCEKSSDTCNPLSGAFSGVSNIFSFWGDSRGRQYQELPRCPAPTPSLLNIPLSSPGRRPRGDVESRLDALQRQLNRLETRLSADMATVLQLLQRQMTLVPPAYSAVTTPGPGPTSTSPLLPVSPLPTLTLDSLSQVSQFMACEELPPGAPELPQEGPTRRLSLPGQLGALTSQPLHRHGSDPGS

MAO A = target: T3, MAO A (Homo sapiens, UniProt P21397); test: MAO A inhibition (Table S2); type: biochemical; details: 10 μM
T3 sequence (P21397 1-527): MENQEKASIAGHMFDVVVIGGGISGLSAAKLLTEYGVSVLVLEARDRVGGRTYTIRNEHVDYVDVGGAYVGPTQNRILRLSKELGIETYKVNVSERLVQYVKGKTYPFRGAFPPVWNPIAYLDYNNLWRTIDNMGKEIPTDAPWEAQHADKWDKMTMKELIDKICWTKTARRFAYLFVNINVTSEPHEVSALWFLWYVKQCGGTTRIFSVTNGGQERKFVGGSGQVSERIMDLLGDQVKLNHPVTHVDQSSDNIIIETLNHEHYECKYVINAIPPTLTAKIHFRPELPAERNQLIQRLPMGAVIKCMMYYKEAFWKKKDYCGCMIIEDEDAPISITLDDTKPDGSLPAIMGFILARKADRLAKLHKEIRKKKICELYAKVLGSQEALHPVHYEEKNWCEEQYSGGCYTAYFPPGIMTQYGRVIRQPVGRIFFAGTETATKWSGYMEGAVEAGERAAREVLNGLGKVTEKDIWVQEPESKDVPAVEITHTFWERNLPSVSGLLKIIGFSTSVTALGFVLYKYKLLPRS

Row | SMILES | IC50 (L-Type Ca2+ Channel) [nM] | IC50 (NCX [1]; read-out: IC50 NCX forward) [nM] | IC50 (NCX [1]; read-out: IC50 NCX reverse) [nM] | IC50 (hNCX1; HEK293, forward mode, Table S2, read-out: hNCX1-HEK IC50) [nM] | IC50 (human NCX 1.1) [nM] | Solubility class (Solubility) | IC50 (NCX [2]; read-out: IC50 NCX forward) [nM] | IC50 (NCX [2]; read-out: IC50 NCX reverse) [nM] | IC50 (NCX [3]; read-out: IC50 NCX forward) [nM] | IC50 (NCX [3]; read-out: IC50 NCX reverse) [nM] | IC50 (hNCX1; HEK293, text, read-out: IC50 hNCX1 (forward mode)) [nM] | inhibition at 10 µM (MAO B) [%] | solubility (Solubility; phosphate buffer, pH 7.4, aqueous buffer, read-out: Solubility class) [µg/mL] | IC50 (NCX [4]; read-out: IC50 NCX forward) [nM] | IC50 (NCX [4]; read-out: IC50 NCX reverse) [nM] | IC50 (hERG) [nM] | inhibition at 10 µM (MAO A) [%]
1 | Nc1cccc(CNC(=O)c2ccc(Oc3ccc(OCc4cccc(F)c4)cc3)nc2)c1 [YM-244769] | > 3000 | 68 | 96 | – | – | – | – | – | – | – | – | – | – | – | – | – | –
2 | N=C(N)SCCc1ccc(OCc2ccc([N+](=O)[O-])cc2)cc1 [KB-R7943] | – | – | – | 3590 | 3790 | Moderate (moderate solubility between 10-100 µg/ml) | 120 | 61 | 243 | 309 | – | – | – | – | – | – | –
3 | CCOC(=O)C1CSC(Cc2ccc(OCc3ccc([N+](=O)[O-])cc3)cc2)N1 (stereo not drawn) [SN‐6, 2‐[4‐(4‐nitrobenzyloxy)benzyl]thiazolidine‐4‐carboxylic acid ethyl ester] | – | – | – | – | 16000 | – | – | – | – | – | > 100000 | 80 | 10 to 100 (≈ 24.8 to 248 µM) | > 30000 | 29000 | 102000 | 38
